In PMC4411097, “Pachymic Acid Inhibits Growth and Induces Apoptosis of Pancreatic Cancer In Vitro and In Vivo by Targeting ER Stress” (PLoS ONE, 2015):

Assays:
[1] = tested on: PARP cleavage (c-PARP) in MIA PaCa-2 cells; assay: Western blot for PARP cleavage (c-PARP); assay type: cell-based, human; conditions: MIA PaCa-2, TUDCA 200 μM with PA 30 μM, 24 h
Protocol: (§1) Apoptosis induction in PA-treated cells was assessed by quantitation of cytoplasmic histone-associated DNA fragments and western blotting for PARP cleavage (c-PARP). The Cell Death Detection ELISA^PLUS Kit (Roche, Indianapolis, IN) was used to detect the amount of cytoplasmic histone-associated DNA fragments according to the manufacturer’s instructions and expressed relative to vehicle-treated cells (set equal to 1).
(§2) PANC-1, MIA PaCa-2 cells were treated with PA (0–30 μM) for 10 min, 30 min or 24 h, respectively. Whole protein extracts isolated from cells and tumor tissues were prepared and western blot analysis with anti-cleaved PARP, anti-XBP-1s, anti-ATF6, anti-ATF4, anti-Hsp70, anti-CHOP, anti-phospho-eIF2α or anti-eIF2α antibodies were performed as previously described. Western blots were quantified with HP-Scanjet 550c and analyzed by UN-SCAN-IT software (Silk Scientific, Orem, UT). Three independent experiments were done for all the immunoblot studies and quantitative data composed of all the experiments with statistical analysis were added below the representative blot image.

[2] = tested on: PARP cleavage (c-PARP) in PANC-1 cells; assay: Western blot for PARP cleavage (c-PARP); assay type: cell-based, human; conditions: PANC-1, TUDCA 200 μM with PA 30 μM, 24 h
Protocol: as §1, §2

MIA PaCa-2 cells = assay: Apoptosis, Cell Death Detection ELISA (cytoplasmic histone-associated DNA fragments); assay type: cell-based, human; conditions: MIA PaCa-2, TUDCA 200 μM with PA 30 μM, 24 h
Protocol: as §1

PANC-1 cells = assay: as above; assay type: cell-based, human; conditions: PANC-1, TUDCA 200 μM with PA 30 μM, 24 h
Protocol: as §1

[3] = tested on: ER stress response proteins in PANC-1 cells; assay: Western blot of ER stress response proteins; assay type: cell-based, human; conditions: PANC-1, TUDCA 200 μM with PA 30 μM, 24 h
Protocol: as §2

[4] = tested on: ER stress response proteins in MIA PaCa-2 cells; assay: Western blot of ER stress response proteins; assay type: cell-based, human; conditions: MIA PaCa-2, TUDCA 200 μM with PA 30 μM, 24 h
Protocol: as §2

[5] = tested on: advanced pancreatic cancer; conditions: cited from earlier work

Row | Compound | Effect of TUDCA on PA-associated c-PARP expression [1] | Effect of TUDCA on PA-associated c-PARP expression [2] | Effect of TUDCA on PA-associated nuclear DNA fragmentation (MIA PaCa-2 cells) | Effect of TUDCA on PA-associated nuclear DNA fragmentation (PANC-1 cells) | Effect of TUDCA on PA-induced ATF4 and CHOP [3] | Effect of TUDCA on PA-induced ATF4 and CHOP [4] | Response rate ([5]; advanced pancreatic cancer) | Median survival time ([5]; pancreatic cancer) [months] | Tumor response rate ([5]; pancreatic cancer) [%]
1 | C[C@H](CCC(=O)NCCS(=O)(=O)O)[C@H]1CC[C@H]2[C@@H]3[C@@H](O)C[C@@H]4C[C@H](O)CC[C@]4(C)[C@H]3CC[C@]12C [TUDCA, tauroursodeoxycholic acid, reference compound] | blocked the enormous increase in the expression of c-PARP | blocked the enormous increase in the expression of c-PARP | rescued | rescued | blocked the induction of ATF4 and CHOP | blocked the induction of ATF4 and CHOP | – | – | –
2 | Nc1ccn([C@@H]2O[C@H](CO)[C@@H](O)C2(F)F)c(=O)n1 [Gemcitabine] | – | – | – | – | – | – | less than 20% | 5 | 12
